{"source": "patent US11247990B1", "about": "“Bicyclic fused pyridine compounds as inhibitors of TAM kinases” (ARRAY BIOPHARMA INC., priority 2017, dated 2022)", "target": "His-tagged recombinant human MER cytoplasmic domain (Homo sapiens (Human), UniProt Q12866)", "sequence (Q12866 527-999)": "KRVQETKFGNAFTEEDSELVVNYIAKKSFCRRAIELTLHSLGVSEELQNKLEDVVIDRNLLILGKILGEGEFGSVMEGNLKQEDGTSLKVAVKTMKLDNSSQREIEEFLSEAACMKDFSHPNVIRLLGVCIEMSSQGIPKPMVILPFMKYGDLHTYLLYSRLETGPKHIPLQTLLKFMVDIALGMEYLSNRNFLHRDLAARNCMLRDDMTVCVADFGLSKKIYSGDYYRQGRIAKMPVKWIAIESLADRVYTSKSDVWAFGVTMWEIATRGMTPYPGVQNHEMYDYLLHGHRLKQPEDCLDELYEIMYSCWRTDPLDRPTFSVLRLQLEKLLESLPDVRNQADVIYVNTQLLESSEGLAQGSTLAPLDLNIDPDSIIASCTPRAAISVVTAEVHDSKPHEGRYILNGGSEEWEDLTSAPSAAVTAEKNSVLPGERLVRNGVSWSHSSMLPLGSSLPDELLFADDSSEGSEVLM", "assay": "MER Enzyme Assay (LanthaScreen Eu Kinase Binding, TR-FRET)", "details": "averaged IC50", "procedure": "Compounds of Formula I were screened for their ability to inhibit MER kinase using Invitrogen's LanthaScreen™ Eu Kinase Binding technology. […] After a 60-minute incubation at 22° C., the reaction was measured using a PerkinElmer EnVision multimode plate reader via TR-FRET dual wavelength detection, and the percent of control (POC) was calculated using a ratiometric emission factor. […] The POC values are fit to a 4 parameter logistic curve and the IC50 value is point where the curve crosses 50 POC.", "data": [{"molecule": "CCNc1cc2c(cn1)c(-c1cnn(C)c1)nn2[C@H]1CC[C@@H](Oc2cccnc2C2CC2)CC1", "note": "[Example 186, 1-((1s,4s)-4-((2-cyclopropylpyridin-3-yl)oxy)cyclohexyl)-N-ethyl-3-(1-methyl-1H-pyrazol-4-yl)-1H-pyrazolo[4,3-c]pyridin-6-amine]", "values": [{"measurement": "IC50", "value": "< 10", "unit": "nM"}]}, {"molecule": "CCNc1cc2c(cn1)c(-c1cnn(C3CS(=O)(=O)C3)c1)nn2[C@H]1CC[C@@H](Oc2ccccc2F)CC1", "note": "[Example 426, 3-(4-(6-(ethylamino)-1-((1s,4s)-4-(2-fluorophenoxy)cyclohexyl)-1H-pyrazolo[4,3-c]pyridin-3-yl)-1H-pyrazol-1-yl)thietane 1,1-dioxide]", "values": [{"measurement": "IC50", "value": "< 10", "unit": "nM"}]}, {"molecule": "CCNc1cc2c(cn1)c(-c1cnn(C(C)(C)C#N)c1)nn2[C@H]1CC[C@@H](Oc2ccccc2F)CC1", "note": "[Example 400, 2-(4-(6-(ethylamino)-1-((1s,4s)-4-(2-fluorophenoxy)cyclohexyl)-1H-pyrazolo[4,3-c]pyridin-3-yl)-1H-pyrazol-1-yl)-2-methylpropanenitrile]", "values": [{"measurement": "IC50", "value": "< 10", "unit": "nM"}]}, {"molecule": "CCNc1cc2c(cn1)c(-c1ccc(CN3CC[C@@H](OC)C3)cc1)nn2[C@H]1CC[C@@H](Oc2ccc(=O)n(C)n2)CC1", "note": "[Example 83, 6-(((1S,4s)-4-(6-(ethylamino)-3-(4-(((R)-3-methoxypyrrolidin-1-yl)methyl)phenyl)-1H-pyrazolo[4,3-c]pyridin-1-yl)cyclohexyl)oxy)-2-methylpyridazin-3(2H)-one]", "values": [{"measurement": "IC50", "value": "< 10", "unit": "nM"}]}, {"molecule": "CCNc1cc2c(cn1)c(-c1cnn(C)c1)nn2[C@H]1CC[C@@H](Oc2cccnc2C)CC1", "note": "[Example 185, N-ethyl-3-(1-methyl-1H-pyrazol-4-yl)-1-((1s,4s)-4-((2-methylpyridin-3-yl)oxy)cyclohexyl)-1H-pyrazolo[4,3-c]pyridin-6-amine]", "values": [{"measurement": "IC50", "value": "< 10", "unit": "nM"}]}, {"molecule": "CCNc1cc2c(cn1)c(-c1ccc(CN3CCN(C)CC3)cc1)nn2[C@H]1CC[C@@H](Oc2cnn(C)c2)CC1", "note": "[Example 233, N-ethyl-1-((1s,4s)-4-((1-methyl-1H-pyrazol-4-yl)oxy)cyclohexyl)-3-(4-((4-methylpiperazin-1-yl)methyl)phenyl)-1H-pyrazolo[4,3-c]pyridin-6-amine]", "values": [{"measurement": "IC50", "value": "< 10", "unit": "nM"}]}, {"molecule": "CNc1cc2c(cn1)c(-c1cnn(C)c1)nn2[C@H]1CC[C@@H](Oc2cccc(C)c2)CC1", "note": "[Example 366, N-methyl-3-(1-methyl-1H-pyrazol-4-yl)-1-((1s,4s)-4-(m-tolyloxy)cyclohexyl)-1H-pyrazolo[4,3-c]pyridin-6-amine]", "values": [{"measurement": "IC50", "value": "< 10", "unit": "nM"}]}, {"molecule": "CCNc1cc2c(cn1)c(-c1cnn(C3CCS(=O)(=O)C3)c1)nn2[C@H]1CC[C@@H](Oc2ccccc2F)CC1", "note": "(stereo partly shown) [Example 425, 3-(4-(6-(ethylamino)-1-((1s,4s)-4-(2-fluorophenoxy)cyclohexyl)-1H-pyrazolo[4,3-c]pyridin-3-yl)-1H-pyrazol-1-yl)tetrahydrothiophene 1,1-dioxide]", "values": [{"measurement": "IC50", "value": "< 10", "unit": "nM"}]}, {"molecule": "CNc1cc2c(cn1)c(-c1cnn(C)c1)nn2[C@H]1CC[C@@H](Oc2cccc(=O)n2C)CC1", "note": "[Example 110, 1-methyl-6-(((1s,4s)-4-(3-(1-methyl-1H-pyrazol-4-yl)-6-(methylamino)-1H-pyrazolo[4,3-c]pyridin-1-yl)cyclohexyl)oxy)pyridin-2(1H)-one]", "values": [{"measurement": "IC50", "value": "< 10", "unit": "nM"}]}, {"molecule": "CCNc1cc2c(cn1)c(-c1cnn(C(CO)CO)c1)nn2[C@H]1CC[C@@H](Oc2ccccc2F)CC1", "note": "[Example 411, 2-(4-(6-(ethylamino)-1-((1s,4s)-4-(2-fluorophenoxy)cyclohexyl)-1H-pyrazolo[4,3-c]pyridin-3-yl)-1H-pyrazol-1-yl)propane-1,3-diol]", "values": [{"measurement": "IC50", "value": "< 10", "unit": "nM"}]}, {"molecule": "CCNc1cc2c(cn1)c(-c1ccc(CN3CC[C@@H](C)C3)cc1)nn2C1CCC(Oc2ccc(=O)n(C)n2)CC1", "note": "(stereo partly drawn) [Example 98, 6-(((1S,4s)-4-(6-(ethylamino)-3-(4-(((R)-3-methylpyrrolidin-1-yl)methyl)phenyl)-1H-pyrazolo[4,3-c]pyridin-1-yl)cyclohexyl)oxy)-2-methylpyridazin-3(2H)-one]", "values": [{"measurement": "IC50", "value": "< 10", "unit": "nM"}]}, {"molecule": "CCNc1cc2c(cn1)c(-c1cnn(C)c1)nn2[C@H]1CC[C@@H](Oc2ccc(C(=O)NC)cc2C(F)(F)F)CC1", "note": "[Example 392, 4-(((1s,4s)-4-(6-(ethylamino)-3-(1-methyl-1H-pyrazol-4-yl)-1H-pyrazolo[4,3-c]pyridin-1-yl)cyclohexyl)oxy)-N-methyl-3-(trifluoromethyl)benzamide]", "values": [{"measurement": "IC50", "value": "< 10", "unit": "nM"}]}, {"molecule": "CCNc1cc2c(cn1)c(-c1cnn(C(C)(C)C#N)c1)nn2[C@H]1CC[C@@H](Oc2nccnc2C)CC1", "note": "[Example 181, 2-(4-(6-(ethylamino)-1-((1s,4s)-4-((3-methylpyrazin-2-yl)oxy)cyclohexyl)-1H-pyrazolo[4,3-c]pyridin-3-yl)-1H-pyrazol-1-yl)-2-methylpropanenitrile]", "values": [{"measurement": "IC50", "value": "< 10", "unit": "nM"}]}, {"molecule": "CCNc1cc2c(cn1)c(-c1ccc(CN3C[C@H](C)[C@@H](O)C3)cc1)nn2[C@H]1CC[C@@H](Oc2ccc(=O)n(C)n2)CC1", "note": "[Example 96, 6-(((1S,4s)-4-(6-(ethylamino)-3-(4-(((3R,4S)-3-hydroxy-4-methylpyrrolidin-1-yl)methyl)phenyl)-1H-pyrazolo[4,3-c]pyridin-1-yl)cyclohexyl)oxy)-2-methylpyridazin-3(2H)-one]", "values": [{"measurement": "IC50", "value": "< 10", "unit": "nM"}]}, {"molecule": "CCNc1cc2c(cn1)c(-c1ccn(C)c(=O)c1)nn2[C@H]1CC[C@@H](Oc2ccccc2F)CC1", "note": "[Example 398, 4-(6-(ethylamino)-1-((1s,4s)-4-(2-fluorophenoxy)cyclohexyl)-1H-pyrazolo[4,3-c]pyridin-3-yl)-1-methylpyridin-2(1H)-one]", "values": [{"measurement": "IC50", "value": "< 10", "unit": "nM"}]}, {"molecule": "CNc1cc2c(cn1)c(-c1cnn(C)c1)nn2[C@H]1CC[C@@H](Oc2ccc(=O)[nH]c2)CC1", "note": "[Example 25, 5-(((1s,4s)-4-(3-(1-methyl-1H-pyrazol-4-yl)-6-(methylamino)-1H-pyrazolo[4,3-c]pyridin-1-yl)cyclohexyl)oxy)pyridin-2(1H)-one]", "values": [{"measurement": "IC50", "value": "< 10", "unit": "nM"}]}, {"molecule": "CCNc1cc2c(cn1)c(-c1cnn(C[C@@H](O)CO)c1)nn2[C@H]1CC[C@@H](Oc2cccc(C)c2F)CC1", "note": "[Example 438, (R)-3-(4-(6-(ethylamino)-1-((1s,4S)-4-(2-fluoro-3-methylphenoxy)cyclohexyl)-1H-pyrazolo[4,3-c]pyridin-3-yl)-1H-pyrazol-1-yl)propane-1,2 diol]", "values": [{"measurement": "IC50", "value": "< 10", "unit": "nM"}]}, {"molecule": "CCNc1cc2c(cn1)c(-c1ccc(CN3CC[C@@H](CO)C3)cc1)nn2[C@H]1CC[C@@H](Oc2ccc(=O)n(C)n2)CC1", "note": "[Example 95, 6-(((1S,4s)-4-(6-(ethylamino)-3-(4-(((R)-3-(hydroxymethyl)pyrrolidin-1-yl)methyl)phenyl)-1H-pyrazolo[4,3-c]pyridin-1-yl)cyclohexyl)oxy)-2-methylpyridazin-3(2H)-one]", "values": [{"measurement": "IC50", "value": "< 10", "unit": "nM"}]}, {"molecule": "CCNc1cc2c(cn1)c(-c1cnn(C[C@@H](O)CO)c1)nn2[C@H]1CC[C@@H](Oc2ccnc(C(F)(F)F)n2)CC1", "note": "[Example 241, (R)-3-(4-(6-(ethylamino)-1-((1s,4S)-4-((2-(trifluoromethyl)pyrimidin-4-yl)oxy)cyclohexyl)-1H-pyrazolo[4,3-c]pyridin-3-yl)-1H-pyrazol-1-yl)propane-1,2-diol]", "values": [{"measurement": "IC50", "value": "< 10", "unit": "nM"}]}, {"molecule": "CCNc1cc2c(cn1)c(-c1cnn(C[C@H](O)C(C)(C)O)c1)nn2[C@H]1CC[C@@H](Oc2cccc(Cl)c2)CC1", "note": "[Example 441, (S)-1-(4-(1-((1s,4R)-4-(3-chlorophenoxy)cyclohexyl)-6-(ethylainino)-1H-pyrazolo[4,3-c]pyridin-3-yl)-1H-pyrazol-1-yl)-3-methylbutane-2,3-diol]", "values": [{"measurement": "IC50", "value": "< 10", "unit": "nM"}]}, {"molecule": "CCNc1cc2c(cn1)c(-c1ccc(C(=O)NC3CC3)cc1)nn2[C@H]1CC[C@@H](Oc2cn(C)nc2C)CC1", "note": "[Example 231, N-cyclopropyl-4-(1-((1s,4s)-4-((1,3-dimethyl-1H-pyrazol-4-yl)oxy)cyclohexyl)-6-(ethylamino)-1H-pyrazolo[4,3-c]pyridin-3-yl)benzamide]", "values": [{"measurement": "IC50", "value": "< 10", "unit": "nM"}]}, {"molecule": "CNc1cc2c(cn1)c(-c1cnn(C)c1)nn2[C@H]1CC[C@@H](Oc2ccnn2C)CC1", "note": "[Example 143, N-methyl-3-(1-methyl-1H-pyrazol-4-yl)-1-((1s,4s)-4-((1-methyl-1H-pyrazol-5-yl)oxy)cyclohexyl)-1H-pyrazolo[4,3-c]pyridin-6-amine]", "values": [{"measurement": "IC50", "value": "< 10", "unit": "nM"}]}, {"molecule": "CCNc1cc2c(cn1)c(-c1cnn(C(CO)CO)c1)nn2[C@H]1CC[C@@H](Oc2cc(F)ccc2F)CC1", "note": "[Example 416, 2-(4-(1-((1s,4s)-4-(2,5-difluorophenoxy)cyclohexyl)-6-(ethylamino)-1H-pyrazolo[4,3-c]pyridin-3-yl)-1H-pyrazol-1-yl)propane-1,3-diol]", "values": [{"measurement": "IC50", "value": "< 10", "unit": "nM"}]}, {"molecule": "CCNc1cc2c(cn1)c(-c1cnn(C)c1)nn2[C@H]1CC[C@@H](Oc2cccnc2C(C)C)CC1", "note": "[Example 192, N-ethyl-1-((1s,4s)-4-((2-isopropylpyridin-3-yl)oxy)cyclohexyl)-3-(1-methyl-1H-pyrazol-4-yl)-1H-pyrazolo[4,3-c]pyridin-6-amine]", "values": [{"measurement": "IC50", "value": "< 10", "unit": "nM"}]}, {"molecule": "CCNc1cc2c(cn1)c(-c1cnn(C[C@H](O)[C@H](C)O)c1)nn2[C@H]1CC[C@@H](Oc2ccccc2F)CC1", "note": "[Example 430, (2S,3S)-1-(4-(6-(ethylamino)-1-((1s,4R)-4-(2-fluorophenoxy)cyclohexyl)-1H-pyrazolo[4,3-c]pyridin-3-yl)-1H-pyrazol-1-yl)butane-2,3-diol]", "values": [{"measurement": "IC50", "value": "< 10", "unit": "nM"}]}, {"molecule": "CCNc1cc2c(cn1)c(-c1ccc3c(c1)CNC3=O)nn2[C@H]1CC[C@@H](Oc2cn(C)nc2C)CC1", "note": "[Example 230, 5-(1-((1s,4s)-4-((1,3-dimethyl-1H-pyrazol-4-yl)oxy)cyclohexyl)-6-(ethylamino)-1H-pyrazolo[4,3-c]pyridin-3-yl)isoindolin-1-one]", "values": [{"measurement": "IC50", "value": "< 10", "unit": "nM"}]}, {"molecule": "CCNc1cc2c(cn1)c(-c1cn[nH]c1)nn2[C@H]1CC[C@@H](Oc2ccccc2F)CC1", "note": "[Example 401, N-ethyl-1-((1s,4s)-4-(2-fluorophenoxy)cyclohexyl)-3-(1H-pyrazol-4-yl)-1H-pyrazolo[4,3-c]pyridin-6-amine]", "values": [{"measurement": "IC50", "value": "< 10", "unit": "nM"}]}, {"molecule": "CNc1cc2c(cn1)c(-c1cnn(C)c1)nn2[C@H]1CC[C@@H](Oc2cccnc2OC)CC1", "note": "[Example 142, 1-((1s,4s)-4-((2-methoxypyridin-3-yl)oxy)cyclohexyl)-N-methyl-3-(1-methyl-1H-pyrazol-4-yl)-1H-pyrazolo[4,3-c]pyridin-6-amine]", "values": [{"measurement": "IC50", "value": "< 10", "unit": "nM"}]}]}
